The numbers were not newly measured in patent US20250091981A1, “PROCESS FOR THE PURIFICATION OF 5-AMINOSALICYLIC ACID” (CHEMI S.P.A., priority 2022, published 2025), which cites them from elsewhere.

Molecules are shown by their SMILES.

The conditions of data set [1]: value reported in the literature.
The conditions of data set [2]: established in the guidelines.

As for `Nc1ccc(O)c(C(=O)O)c1` [Example 5-ASA, 5-Amino salicylic acid], the “isoelectric pH” value in data set [1] is reported as 3.7.

For `CCN(CC)N=O` [NDEA, N,N-diethyl-nitrosamine], in data set [2], the “maximum daily intake limit” value was 26.5 ng.
